Measurements reported in US20190321417A1, “BACTERIAL PROBIOTIC TO DETOXIFY HERBICIDES AND INSECTICIDES” (PRESIDENT AND FELLOWS OF HARVARD COLLEGE, priority 2018, published 2019).

Legend:
[1] = test system: Nasonia; experiment: Herbicide toxicity (LC50) in adult Nasonia from generationally-atrazine exposed and naïve populations; format: in vivo, Nasonia virtipennis; settings: 24 hr old adults
From the text: (§1) FIGS. 3A-3C present data that show atrazine resistance. (FIG. 3A) The median lethal concentration of atrazine to kill half of the population (LC50) in ppm for each generation of the Naïve populations (open circles) and the Atrazine exposed populations (black circles). (FIG. 3B) The median lethal concentration of atrazine to kill half of the population (LC50) in ppm for each generation of the Naïve populations (open circles) and the Atrazine exposed populations (black circles) when grown Germfree, gnotobiotic. Without bacteria, both populations experience increased toxicity of atrazine, over 100 fold greater than normal generations' LC50. (FIG. 3C) LC50 survival of 24 hrs old adult Nasonia virtipennis were sprayed with a sterile PBS solution (squares), S. marcescens TVIT01 (8×10^6 cells/ml, circles), or P. protegens TVIT02 (3×10^8 cells/ml, triangles) and incubated for 6 hr before being fed 100 ppm of atrazine sugar solution (A) or only sugar solution (C), and their survival was calculated 48 hrs later. Three replicates of 50 individuals are for each treated group (Two-tailed t test, *P<0.05).
Toxicity experiments were conducted at a range of concentrations for both atrazine and Glyphosate to test the effect that the new microbiome has on increasing resistance. 50 adults (24 hr old) were put into vials from either the generationally-atrazine exposed populations or the naïve populations and exposed to atrazine or glyphosate at parts per million concentrations of 0 ppm, 10 ppm, 30 ppm, 100 ppm, 200 ppm, 400 ppm, 600 ppm, 800 ppm, 1000 ppm. Mortality was recorded after 0, 24, 48, 72, 96, 120, 168 hours (from atrazine exposure point). These were conducted in concurrent replicate experiments.

[2] = test system: Nasonia; experiment: Atrazine toxicity in germfree, gnotobiotic Nasonia populations; format: in vivo, Nasonia virtipennis; settings: both exposed and naïve populations, 0-30 ppb atrazine, up to 96 hr
From the text: as §1
To test the role of the microbiome as a detoxicant to herbicides, both populations were tested in germfree, gnotobiotic, conditions. Survival was measured when exposed atrazine concentrations of 0, 5 ppb, 10 ppb, 15 ppb, 25 ppb, 30 ppb for up to 96 hr. […]

[3] = generationally-atrazine exposed populations

| SMILES | median lethal concentration to kill half of the population (LC50) [1, 3] [ppm] | median lethal concentration to kill half of the population (LC50) ([1]; naïve populations) [ppm] | increase in toxicity with bacteria removed, compared to normal [2] [fold] |
| --- | --- | --- | --- |
| O=C(O)CNCP(=O)(O)O [Glyphosate, N-(phosphonomethyl)glycine] | 315 | 148 | – |
| CCNc1nc(Cl)nc(NC(C)C)n1 [atrazine, Atrazine] | 562 | 62 | > 100 |
